The values that follow come from patent US6329399A, “Antifungal amine derivatives and processing for producing the same” (Pola Chemical Industries, Inc., priority 1997, dated 2001).

In general, MIC refers to the lowest concentration that inhibits growth of the organism. A lower MIC goes with inhibition by little substance.

Common to all, as to experiment: Measurement of antimycotic activity (minimum inhibitory concentration, MIC) against dermatophyte
Holding throughout (type): cell-based

One experiment relates to M. canis TIMM0760. The conditions noted are these: Microsporum canis, 168 h, Sabouraud's agar pH=5.9, 27° C., 1 week. As for the experimental part: (§1) The antimycotic activity of the compounds of the invention against dermatophyte was examined.
(§2) More particularly, the test dermatophyte strains shown in Tables 9 and 10 below were cultivated in advance on a slant culture of Sabouraud's agar medium (manufactured by Nissui Seiyaku Co., Ltd.; 1.0% peptone, 4.0% glucose, 1.5% agar, pH=5.9) at 27° C. for 2 weeks to allow them to grow conidia sufficiently. Then, sterilized physiological saline containing 0.05 weight/volume % of Tween 80 was added to the culture and while rubbing the surface of the culture with a platinum loop, the conidia were separated and caused to float. Using a hemocytometer, the filtrate was adjusted with sterilized physiological saline such that the concentration of conidia was 10^6 cells/ml, which was used as a test microbe liquid.
(§3) On the other hand, PR compounds and AD compounds (test drugs) of the present invention obtained in the examples described above were taken each in an amount of 10 mg, and 1 ml of dimethyl sulfoxide was added thereto to form a stock solution, of which 500 μl was taken and 500 μl of dimethyl sulfoxide was added thereto to prepare a 2-fold dilution. The same operation was repeated to prepare 13-stages ranging from 10 to 0.0025 mg/ml (final concentration of test system 100 to 0.025 μg/ml) of diluted drug solutions. Solutions with various diluted concentrations of test drug were each dispensed in sterilized petri dish with an amount of 100 μl. Then, 10 ml of sterile-dissolved Sabouraud's agar medium (1.0% peptone, 4.0% glucose, 1.5% agar, pH=5.9) was added, well mixed and solidified. Then, 5 μl of the test microbe solution previously adjusted were added using a microplanter, respectively.
(§4) The results are shown in Table 9 for PR compounds and in Table 10 for AD compounds, respectively. In the column of Compound No. in Tables 9 and 10, "PR-" or "AD-" were omitted.

A further experiment relates to M. gypseum IF08231. The note with it: Nannizzia gypsea, 168 h, Sabouraud's agar pH=5.9, 27° C., 1 week. As for the experimental part: as §1, §2, §3, §4
The test system of experiment [1] is T. mentagrophytes IF05811. The conditions noted are these: Trichophyton mentagrophytes, 168 h, Sabouraud's agar pH=5.9, 27° C., 1 week. The protocol:
as §1, §2, §3, §4

The test system of experiment [2] is T. mentagrophytes IF07552. The conditions noted are these: Trichophyton mentagrophytes, 168 h, Sabouraud's agar pH=5.9, 27° C., 1 week. As for the experimental part:
as §1, §2, §3, §4

Experiment [3] has as its system T. mentagrophytes TIMM1177. The conditions noted are these: Trichophyton mentagrophytes, 168 h, Sabouraud's agar pH=5.9, 27° C., 1 week. As for the experimental part:
as §1, §2, §3, §4

Experiment [4] has as its system T. mentagrophytes TIMM1189. The note with it: Trichophyton mentagrophytes, 168 h, Sabouraud's agar pH=5.9, 27° C., 1 week. As for the experimental part:
as §1, §2, §3, §4

The subject of another experiment is T. rubrum IF05808. The note with it: Trichophyton rubrum, 168 h, Sabouraud's agar pH=5.9, 27° C., 1 week. The protocol:
as §1, §2, §3, §4

The test system of the next experiment is T. rubrum IF09185. The note with it: Trichophyton rubrum, 168 h, Sabouraud's agar pH=5.9, 27° C., 1 week. As for the experimental part:
as §1, §2, §3, §4

Another experiment relates to T. violaceum TIMM1264. The note with it: Trichophyton violaceum, 168 h, Sabouraud's agar pH=5.9, 27° C., 1 week. As for the experimental part: as §1, §2, §3, §4

≈ marks a conversion by molar mass, not a printed value.

Turning to `C=C(CN(C)C/C=C/C#CC(C)(C)C)c1ccccc1Br` [Compound PR-1505, trans-N-(6,6-dimethyl-2-hepten-4-ynyl)-N-methyl-[2-(2-bromophenyl)-2-propenyl]amine], the minimum inhibitory concentration (MIC) turned out to be 0.39 µg/mL (≈ 1.13 µM) in the experiment with M. canis TIMM0760; 6.25 µg/mL (≈ 18 µM) against M. gypseum IF08231; 1.56 µg/mL (≈ 4.5 µM) in experiment [1]; 1.56 µg/mL (≈ 4.5 µM) in experiment [2]; 1.56 µg/mL (≈ 4.5 µM) in [3]; 1.56 µg/mL (≈ 4.5 µM) in experiment [4]. Moreover, the MIC against T. rubrum IF05808 is 0.39 µg/mL (≈ 1.13 µM); against T. rubrum IF09185 it was 1.56 µg/mL (≈ 4.5 µM); in the experiment with T. violaceum TIMM1264, 0.39 µg/mL (≈ 1.13 µM).

On to `C=C(CN(C)C/C=C/C#CC(C)(C)C)c1ccc(O)cc1` [Compound PR-1606, Trans-N-(6,6-dimethyl-2-hepten-4-ynyl)-N-methyl-[2-(4-hydroxyphenyl)-2-propenyl]amine], for which the MIC is 25 µg/mL (≈ 88.2 µM) against M. canis TIMM0760; 25 µg/mL (≈ 88.2 µM) with M. gypseum IF08231; 25 µg/mL (≈ 88.2 µM) in [1]; 50 µg/mL (≈ 176 µM) in [2]; 50 µg/mL (≈ 176 µM) in [3]; 50 µg/mL (≈ 176 µM) in experiment [4]. Moreover, the figures for the MIC with T. rubrum IF05808, in the experiment with T. rubrum IF09185 and against T. violaceum TIMM1264 were 25 µg/mL (≈ 88.2 µM), 50 µg/mL (≈ 176 µM) and 50 µg/mL (≈ 176 µM), respectively.

With `C=C(CN(C)Cc1ccc(C(C)(C)C)cc1)c1cccc([N+](=O)[O-])c1` [Compound AD-037, N-(4-tert-butylbenzyl)-N-methyl-[2-(3-nitrophenyl)-2-propenyl]amine], the minimum inhibitory concentration (MIC) worked out at 0.78 µg/mL (≈ 2.3 µM) in the experiment with M. canis TIMM0760; 3.12 µg/mL (≈ 9.22 µM) with M. gypseum IF08231; 1.56 µg/mL (≈ 4.61 µM) in experiment [1]; 1.56 µg/mL (≈ 4.61 µM) in [2]; 1.56 µg/mL (≈ 4.61 µM) in experiment [3]; 3.12 µg/mL (≈ 9.22 µM) in [4]. Further, the MIC against T. rubrum IF05808 was 0.78 µg/mL (≈ 2.3 µM); in the experiment on T. rubrum IF09185, 0.78 µg/mL (≈ 2.3 µM); with T. violaceum TIMM1264 it was 3.12 µg/mL (≈ 9.22 µM).

As to `C=C(CN(C)C/C=C/C#CC(C)(C)C)c1cccc(C)c1` [Compound PR-1540, trans-N-(6,6-dimethyl-2-hepten-4-ynyl)-N-methyl-[2-(m-tolyl)-2-propenyl]amine], the minimal inhibitory concentration (MIC) was determined as 0.1 µg/mL (≈ 0.355 µM) in the experiment on M. canis TIMM0760; 1.56 µg/mL (≈ 5.54 µM) in the experiment with M. gypseum IF08231; 0.1 µg/mL (≈ 0.355 µM) in experiment [1]; 0.39 µg/mL (≈ 1.39 µM) in experiment [2]; 0.39 µg/mL (≈ 1.39 µM) in experiment [3]; 0.1 µg/mL (≈ 0.355 µM) in [4]. Also, the MIC against T. rubrum IF05808, in the experiment on T. rubrum IF09185 and with T. violaceum TIMM1264 was 0.1 µg/mL (≈ 0.355 µM) throughout.

`C=C(CN(C)Cc1ccc(C(C)(C)C)cc1)c1cccc(C#N)c1` [Compound AD-052, 3-[1-{N-(4-tert-butylbenzyl)-N-methylamino}methyl]vinylbenzonitrile]: the MIC in the experiment with M. canis TIMM0760 was found to be 0.39 µg/mL (≈ 1.22 µM); against M. gypseum IF08231 it was 0.39 µg/mL (≈ 1.22 µM); in [1], 0.39 µg/mL (≈ 1.22 µM); in experiment [2], 0.78 µg/mL (≈ 2.45 µM); in experiment [3], 0.78 µg/mL (≈ 2.45 µM); in experiment [4] it was 0.78 µg/mL (≈ 2.45 µM). Also, the MIC is 0.39 µg/mL (≈ 1.22 µM) in the experiment on T. rubrum IF05808, 0.39 µg/mL (≈ 1.22 µM) against T. rubrum IF09185 and 1.56 µg/mL (≈ 4.9 µM) against T. violaceum TIMM1264.

Take `C=C(CN(C)C/C=C/C#CC(C)(C)C)c1cc(F)cc(F)c1` [Compound PR-2159, Trans-N-(6,6-dimethyl-2-hepten-4-ynyl)-N-methyl-[2-(3,5-difluorophenyl)-2-propenyl]amine]: the MIC was determined as 0.05 µg/mL (≈ 0.165 µM) against M. canis TIMM0760; 0.2 µg/mL (≈ 0.659 µM) with M. gypseum IF08231; 0.2 µg/mL (≈ 0.659 µM) in [1]; 0.2 µg/mL (≈ 0.659 µM) in experiment [2]; 0.2 µg/mL (≈ 0.659 µM) in [3]; 0.1 µg/mL (≈ 0.33 µM) in experiment [4]. The minimal inhibitory concentration (MIC) against T. rubrum IF05808 came to 0.1 µg/mL (≈ 0.33 µM); against T. rubrum IF09185, 0.1 µg/mL (≈ 0.33 µM); against T. violaceum TIMM1264, 0.2 µg/mL (≈ 0.659 µM).

On to `C=C(CN(C)C/C=C/C#CC(C)(C)C)c1ccccc1N` [Compound PR-1672, Trans-N-(6,6-dimethyl-2-hepten-4-ynyl)-N-methyl-[2-(2-aminophenyl)-2-propenyl]amine], for which the MIC in the experiment on M. canis TIMM0760 was 1.56 µg/mL (≈ 5.52 µM); in the experiment with M. gypseum IF08231, 3.12 µg/mL (≈ 11 µM); in experiment [1] it was 3.12 µg/mL (≈ 11 µM); in [2], 1.56 µg/mL (≈ 5.52 µM); in experiment [3], 3.12 µg/mL (≈ 11 µM); in experiment [4] it was 3.12 µg/mL (≈ 11 µM). For the same compound, the figures for the MIC against T. rubrum IF05808, with T. rubrum IF09185 and with T. violaceum TIMM1264 were 0.78 µg/mL (≈ 2.76 µM), 1.56 µg/mL (≈ 5.52 µM) and 3.12 µg/mL (≈ 11 µM), respectively.
